Reference: patent US10787430B2, “Hemoglobin modifier compounds and uses thereof” (FronThera U.S. Pharmaceuticals LLC, priority 2016, dated 2020)

Columns and labels:
[1] = biological target: T1, hemoglobin (normal human adult blood) (Homo sapiens, UniProt P68871+P69905); experiment: Time-dependent oxygen equilibrium curve (OEC) studies in normal whole blood; type: cell-based; settings: 2 mM compound, 2% DMSO, normal human blood 20% hematocrit, 37° C., 1 h
T1 construct: Normal whole blood was collected from adult healthy donors; from tissue; host or cells: normal human whole blood (red blood cells), adult healthy donors
Description: (§1) Materials: Normal whole blood was collected from adult healthy donors at the Virginia Commonwealth University after informed consent. The use of these human samples is in accordance with regulations of the IRB for Protection of Human Subjects. Compounds (50 mM-100 mM concentration in DMSO) were stored at 15° C. or room temperature until use.
The time-dependent OEC studies were conducted on normal human adult blood samples with hematocrit value of 20% in the absence or presence of effectors solubilized in DMSO at final drug and DMSO concentrations of 2 mM and 2%, respectively. […] The mixture was further incubated at 37° C. with shaking. […] After equilibration, the sample was removed by syringe and aspirated into a ABL 700 series table top automated blood gas analyzer (Radiometer America, Inc., Westlake, Ohio) to determine values of total hemoglobin (tHb), methemoglobin (metHb), hematocrit (Hct), pH, partial pressure of oxygen (pO2), and Hb oxygen saturation values (sO2). The measured values of sO2 and pO2 at each partial pressure of oxygen are then subjected to a non-linear regression analysis using the program Scientist (Micromath, Salt Lake City, Utah) with the following equation: […]
This equation was used to calculate P50 and Hill coefficient (N) values. Corresponding control experiments without the test compound (P50control) but containing DMSO were also performed. GBT440 was used as a positive control.

[2] = biological target: T2, hemoglobin (20% hct blood) (Homo sapiens, UniProt P68871+P69905); experiment: Dose-dependent whole blood OEC studies; type: cell-based; settings: 37° C., 1 hr; for delta p50 0.2 mM: 0.2 mM compound; for delta p50 0.5 mM: 0.5 mM compound
T2 construct: Normal whole blood was collected from adult healthy donors; from tissue; host or cells: normal human whole blood (red blood cells), adult healthy donors
Description: as §1
To 2 ml 20% hct blood, 0.2 or 0.5 or 1 mM compound was added and kept shaking at 37° C. for 1 hr. OEC analysis was performed as described above to determine partial pressure of oxygen (pO2) and Hb oxygen saturation values (sO2). A control without compound but containing equivalent amount of DMSO was performed (1%). GBT440 was used as a positive control. Table 2 below lists the delta p50% values.

T2 sequence (P69905 2-142 limits assumed): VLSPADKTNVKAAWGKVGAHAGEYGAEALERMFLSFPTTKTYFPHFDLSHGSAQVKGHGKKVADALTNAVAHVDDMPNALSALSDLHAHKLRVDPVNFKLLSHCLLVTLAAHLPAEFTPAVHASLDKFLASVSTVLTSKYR
T2 sequence (P68871 2-147 limits assumed): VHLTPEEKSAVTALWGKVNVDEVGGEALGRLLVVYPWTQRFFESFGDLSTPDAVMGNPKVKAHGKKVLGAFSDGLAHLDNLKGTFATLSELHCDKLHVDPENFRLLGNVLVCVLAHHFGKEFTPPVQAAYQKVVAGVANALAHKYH
T1 sequence (P69905 2-142 limits assumed): as the sequence (P69905 2-142 limits assumed) above
T1 sequence (P68871 2-147 limits assumed): as the sequence (P68871 2-147 limits assumed) above

CC(C)n1nccc1-c1ncccc1COc1ccc2c(c1C=O)CCO2 [Example 2, 5-((2-(1-isopropyl-1H-pyrazol-5-yl)pyridin-3-yl)methoxy)-2,3-dihydrobenzofuran-4-carbaldehyde]
delta p50 [1]: −78%

CC(C)n1nccc1-c1ncccc1COc1cc2c(cc1C=O)OCC2 [Example 3, 5-((2-(1-isopropyl-1H-pyrazol-5-yl)pyridin-3-yl)methoxy)-2,3-dihydrobenzofuran-6-carbaldehyde]
delta p50 [1]: −62%

CC(C)n1nccc1-c1ncccc1COc1ccc2c(c1C=O)OCC2 [Example 4, 6-((2-(1-isopropyl-1H-pyrazol-5-yl)pyridin-3-yl)methoxy)-2,3-dihydrobenzofuran-7-carbaldehyde]
delta p50 [1]: −51%

CC(C)n1nccc1-c1ncccc1COc1ccc2ccoc2c1C=O [Example 5, 6-((2-(1-isopropyl-1H-pyrazol-5-yl)pyridin-3-yl)methoxy)benzofuran-7-carbaldehyde]
delta p50 [1]: −77%

CC(C)n1nccc1-c1ncccc1COc1ccc2c(c1C=O)OCO2 [Example 6, 5-((2-(1-isopropyl-1H-pyrazol-5-yl)pyridin-3-yl)methoxy)benzo[d][1,3]dioxole-4-carbaldehyde]
delta p50 [1]: −66%

CC(C)n1nccc1-c1ncccc1COc1ccc2c(c1C=O)OCCO2 [Example 7, 6-((2-(1-isopropyl-1H-pyrazol-5-yl)pyridin-3-yl)methoxy)-2,3-dihydrobenzo[b][1,4]dioxine-5-carbaldehyde]
delta p50 [1]: −59%

CC(C)n1nccc1-c1ncccc1COc1ccc2c(c1C=O)OC(F)(F)O2 [Example 8, 2,2-difluoro-5-((2-(1-isopropyl-1H-pyrazol-5-yl)pyridin-3-yl)methoxy)benzo[d][1,3]dioxole-4-carbaldehyde]
delta p50 [1]: −68%

[2H]C(C)(C)n1nccc1-c1nccnc1COc1cccc(O)c1C=O [Example 51, 2-hydroxy-6-((3-(1-(propan-2-yl-2-d)-1H-pyrazol-5-yl)pyrazin-2-yl)methoxy)benzaldehyde]
delta p50 0.2 mM [2]: −13.10% | delta p50 0.5 mM [2]: −36.40%

CC(C)n1nccc1-c1ncncc1COc1ccc2ncsc2c1C=O [Example 53, 6-((4-(1-isopropyl-1H-pyrazol-5-yl)pyrimidin-5-yl)methoxy)benzo[d]thiazole-7-carbaldehyde]
delta p50 0.2 mM [2]: −20.50% | delta p50 0.5 mM [2]: −37.80%

CC(C)n1nccc1-c1ncncc1COc1ccc2ncoc2c1C=O [Example 54, 6-((4-(1-isopropyl-1H-pyrazol-5-yl)pyrimidin-5-yl)methoxy)benzo[d]oxazole-7-carbaldehyde]
delta p50 0.2 mM [2]: −12.00% | delta p50 0.5 mM [2]: −35.00%

CC(C)n1nccc1-c1ncncc1COc1ccc2cccnc2c1C=O [Example 55, 7-((4-(1-isopropyl-1H-pyrazol-5-yl)pyrimidin-5-yl)methoxy)quinoline-8-carbaldehyde]
delta p50 0.2 mM [2]: −5.30% | delta p50 0.5 mM [2]: −8.80%

CC(C)n1nccc1-c1ncncc1COc1ccc2cccnc2c1C=O [Example 56, 7-((4-(1-isopropyl-1H-pyrazol-5-yl)pyrimidin-5-yl)methoxy)quinoline-8-carbaldehyde]
delta p50 0.2 mM [2]: −1.60% | delta p50 0.5 mM [2]: −11.30%

CC(C)n1ncc(F)c1-c1ncncc1COc1cccc(O)c1C=O [Example 57, 2-((4-(4-fluoro-1-isopropyl-1H-pyrazol-5-yl)pyrimidin-5-yl)methoxy)-6-hydroxybenzaldehyde]
delta p50 0.2 mM [2]: −4.90% | delta p50 0.5 mM [2]: −7.60%

CC(C)n1nccc1-c1cccnc1COc1ccc2ncoc2c1C=O [Example 58, 6-((3-(1-isopropyl-1H-pyrazol-5-yl)pyridin-2-yl)methoxy)benzo[d]oxazole-7-carbaldehyde]
delta p50 0.2 mM [2]: −14.30% | delta p50 0.5 mM [2]: −34.30%

CC(C)n1nccc1-c1c(COc2cccc(O)c2C=O)ncn1C [Example 63, 2-hydroxy-6-((5-(1-isopropyl-1H-pyrazol-5-yl)-1-methyl-1H-imidazol-4-yl)methoxy)benzaldehyde]
delta p50 0.2 mM [2]: −7.00% | delta p50 0.5 mM [2]: −15.20%

CC(C)n1nccc1-c1scnc1COc1cccc(O)c1C=O [Example 64, 2-hydroxy-6-((5-(1-isopropyl-1H-pyrazol-5-yl)thiazol-4-yl)methoxy)benzaldehyde]
delta p50 0.2 mM [2]: −10.00% | delta p50 0.5 mM [2]: −31.00%

CC(C)n1nccc1-c1ncsc1COc1cccc(O)c1C=O [Example 65, 2-hydroxy-6-((4-(1-isopropyl-1H-pyrazol-5-yl)thiazol-5-yl)methoxy)benzaldehyde]
delta p50 0.2 mM [2]: −11.20% | delta p50 0.5 mM [2]: −36.20%

CC(C)n1nccc1-c1ocnc1COc1cccc(O)c1C=O [Example 66, 2-hydroxy-6-((5-(1-isopropyl-1H-pyrazol-5-yl)oxazol-4-yl)methoxy)benzaldehyde]
delta p50 0.2 mM [2]: −5.70% | delta p50 0.5 mM [2]: −16.50%

CC(C)n1nccc1-c1ncoc1COc1cccc(O)c1C=O [Example 67, 2-hydroxy-6-((4-(1-isopropyl-1H-pyrazol-5-yl)oxazol-5-yl)methoxy)benzaldehyde]
delta p50 0.2 mM [2]: −6.80% | delta p50 0.5 mM [2]: −25.30%

Cc1nc(COc2cccc(O)c2C=O)c(-c2ccnn2C(C)C)o1 [Example 68, 2-hydroxy-6-((5-(1-isopropyl-1H-pyrazol-5-yl)-2-methyloxazol-4-yl)methoxy)benzaldehyde]
delta p50 0.2 mM [2]: −8.70% | delta p50 0.5 mM [2]: −13.00%

CC(C)n1nccc1-c1ncn(C)c1COc1cccc(O)c1C=O [Example 69, 2-hydroxy-6-((4-(1-isopropyl-1H-pyrazol-5-yl)-1-methyl-1H-imidazol-5-yl)methoxy)benzaldehyde]
delta p50 0.2 mM [2]: −21.40% | delta p50 0.5 mM [2]: −41.80%

Cc1nc(-c2ccnn2C(C)C)c(COc2cccc(O)c2C=O)s1 [Example 70, 2-hydroxy-6-((4-(1-isopropyl-1H-pyrazol-5-yl)-2-methylthiazol-5-yl)methoxy)benzaldehyde]
delta p50 0.2 mM [2]: −10.40% | delta p50 0.5 mM [2]: −21.90%

[2H]C([2H])(Oc1cccc(O)c1C=O)c1nccnc1-n1ccnc1C(C)C [Example 72, 2-hydroxy-6-((3-(2-isopropyl-1H-imidazol-1-yl)pyrazin-2-yl)methoxy-d2)benzaldehyde]
delta p50 0.2 mM [2]: −5.10% | delta p50 0.5 mM [2]: −16.80%

CC(C)n1nccc1-c1nccc(F)c1COc1cccc(O)c1C=O [Example 74, 2-((4-fluoro-2-(1-isopropyl-1H-pyrazol-5-yl)pyridin-3-yl)methoxy)-6-hydroxybenzaldehyde]
delta p50 0.2 mM [2]: −15.8% | delta p50 0.5 mM [2]: −48.4%

[2H]C([2H])(Oc1cccc(O)c1C=O)c1c(F)ccnc1-c1ccnn1C(C)C [Example 75, 2-((4-fluoro-2-(1-isopropyl-1H-pyrazol-5-yl)pyridin-3-yl)methoxy-d2)-6-hydroxybenzaldehyde]
delta p50 0.2 mM [2]: −13.0% | delta p50 0.5 mM [2]: −53.7%
